Measurements published in patent US20240374655A1, “INTESTINAL MICROBIOTA AND GVHD” (Memorial Sloan-Kettering Cancer Center, priority 2014, published 2024).
Entries after “also recorded” stand apart in the source; their conditions may differ.

How the values were obtained:
murine Blautia = assay: In vitro suppression of Blautia by L. johnsonii / Lacto-conditioned media and rescue by reducing agents; format: cell-based; settings: reducing agent added in the presence of Lacto-conditioned media
Experimental: A) Murine Blautia was grown in peptone yeast glucose broth either alone, or with murine L. johnsonii in conditions of limited media or ample media, and viable colonies were quantified. B) L. johnsonii was allowed to grow in media to plateau phase, then sterile filtered to generate Lacto-conditioned media. Effects of Lacto-conditioned media on the viability of L. johnsonii and murine Blautia were evaluated when mixed with fresh media in a 1:1 ratio. Effects of the addition of 3 reducing agents indicated was also evaluated.
From studying the effects of calorie restriction on intestinal microbiota composition it was observed that obligate anaerobes (Clostridia, Bacteroidetes) are reduced in abundance while facultative anaerobes (Lactobacillos, Proteobacteria) expand. Production of free radicals by E. coli in the setting of starvation has been described previously (Saby S, et al. Appl Environ Microbiol. 1999; 5600-5603). Experiments were designed to examine in vitro if Lactobacillus johnsonii could suppress the growth of our murine Blautia isolate under starvation conditions, and to further investigate if production of free radicals could be a contributing factor. […] The effects of media that had supported the growth of L. johnsonii to plateau phase were further investigated following sterile filtration. […] It was then examined if reducing agents could rescue Blautia from Lacto-conditioned-media-mediated suppression.

[1] = tested on: intestinal microbiota (Clostridiales, Enterococcus); assay: Flora composition (16S rRNA sequencing of stool) after antibiotic treatment of healthy mice; format: in vivo, C57BL/6 mice; settings: 100 mg/kg SC twice a day for two days
Experimental: (§1) FIGS. 16A-16J Imipenem treatment, compared to aztreonam treatment, suppresses anaerobic commensals and elevates GVHD severity in mice. (A) Flora composition analysis using 16S rRNA sequencing prior to and after treatment with the indicated antibiotics in healthy C57BL/6 mice. Mice were treated with subcutaneous (SC) injections of each antibiotic twice a day for two days (500 mg/kg for pip/tazo and 100 mg/kg for others) and stool samples were collected the following day. Values represent mean±SEM (n=3-4). *, P<0.05; **, P<0.01; ****, P<0.0001. Data are representative of two independent experiments. (B to J) Lethally irradiated 129S1 recipients were transplanted with MHC matched C57BL/6 T-cell depleted bone marrow (TCD-BM) cells and 1×10^6 C57BL/6 T cells. Control mice received TCD-BM only. Recipients were treated with imipenem or aztreonam (100 mg/kg, SC, 3 times a week from day 10 to day 24 following allo-HSCT). (B) Comparison of overall survival, with combined data from three independent experiments (n=15-43). ****, P<0.0001. (C) Mice with GVHD treated with antibiotics were sacrificed on day 21 and GVHD histology scores in target organs were quantified by a blinded pathologist. Data are combined from three independent experiments (n=5-20). *, P<0.05. (D) Stool samples obtained from mice treated with imipenem or aztreonam similarly to those in B were collected on day 21 and analyzed by 16S rRNA gene sequencing, followed by principal coordinate analysis of weighted and normalized UniFrac distances. (E and F) Differential taxonomic abundance between aztreonam treated and imipenem treated recipients was analyzed by (E) linear discriminate analysis coupled with effect size measurements (LEfSe) and (F) by LEfSe projected as a cladogram. Data are representative from more than five independent experiments in D to F. (G and H) Comparisons of bacterial abundance at the phylogenetic levels of (G) order, and (H) genus are shown. Data are combined from 6 independent experiments (n=32-36). ***, P<0.001. (I) Stool samples collected from mice with GVHD treated with antibiotics were collected on day 21, and evaluated by metagenomic shotgun sequence analysis, comparison of bacterial species abundance determined by taxonomy. Numbers 1 through 6 along the x-axis represent the individual subjects. (J) Principal component analysis of quantification of sequence reads from KEGG gene orthologs comparing samples from mice treated with aztreonam and imipenem.
To further explore causality and mechanisms of the effects of antibiotics with anaerobic activity on GVHD, we turned to experiments in mice. […] Mice were treated by subcutaneous (SC) injections of each antibiotic twice a day for two days (500 mg/kg for pip/tazo and 100 mg/kg for others) and stool samples were collected, followed by 16S rRNA gene amplification and sequence analysis.

[2] = tested on: Blautia isolate of C57BL/6 origin; assay: Sugar fermentation by bacterial isolate (pH and optical density in media lacking glucose); format: cell-based
Experimental: (§2) Utilizing Blautia isolate of C57BL/6 origin, as well as a Lactobacillus johnsonii of C57BL/6 origin, the ability of these bacteria to ferment a variety of sugars was evaluated using pH and optical density to evaluate bacterial growth in media lacking glucose. Lactobacillus johnsonii was evaluated because this bacteria expands in the setting of calorie restriction at the expense of Clostridia, and is thus presumably a direct competitor for nutrients in the murine intestine.

[3] = tested on: Lactobacillus johnsonii of C57BL/6 origin; assay: as above; format: cell-based
Experimental: as §2

[4] = Antibiotic treatment in MHC-matched minor antigen-mismatched allo-HSCT GVHD model (C57BL/6 into 129S1); format: in vivo; settings: mouse, in vivo
Experimental: as §1, with “Data are representative from more than five independent experiments in D to F. (G and H) Comparisons of bacterial abundance at the phylogenetic levels of (G) order, and (H) genus are shown. Data are combined from 6 independent experiments (n=32-36). ***, P<0.001.” left out, “Numbers 1 through 6 along the x-axis represent the individual subjects.” left out
(A to G) Lethally irradiated 129S1 recipients were transplanted with C57BL/6 TCD-BM cells with 1×10^6 C57BL/6 T cells. […] (A) Colonic lamina propria-infiltrating leukocytes from recipients were analyzed on day 21 by flow cytometry. […] (C) Lamina propria-infiltrating leukocytes from the colon on day 21 were enriched for CD11b and CD11e simultaneously using a mixture of magnetic beads and IL-23 transcripts were quantified by real time PCR. […] (D) Immunofluorescent staining was used to quantify pSTAT3, CD3, and DAPI positive cells in colonic tissue collected on day 21. […]

Clostridiales = assay: Change in Clostridiales abundance in paired stool samples of allo-HSCT patients before and after starting antibiotics; format: in vivo, human; settings: before vs after starting the antibiotic; compared to aztreonam
From the text: (A) A retrospective cohort was identified of 283 adult patients who received non-T cell depleted allo-HSCT at our center from 1994 to 2013 and received antibiotics for neutropenic fever. Patients were stratified by exposure to antibiotics with significant activity against anaerobes. Outcomes indicated were depicted by Kaplan-Meier plots and curves compared by the logrank test. (B to G) Six representative clinical cases with time courses depicted of fecal microbiota composition and administration of antibiotic treatments during the course of allo-HSCT. […] (H) Change in abundance of Clostridiales in paired fecal samples from patients undergoing allo-HSCT collected prior to and following treatment with the indicated antibiotics.
For each stool specimen, DNA was purified using a phenol-chloroform extraction technique with mechanical disruption (bead-beating) based on a previously described protocol (60). Samples were analyzed using the 454 GS FLX Titanium platform to sequence the V1-V3 region of the bacterial 16S rRNA gene or were alternatively analyzed using the Illumina MiSeq platform to sequence the V4-V5 region of the 16S rRNA gene. Sequence data were compiled and processed using mothur version 1.34 (61), screened and filtered for quality (62). Operational taxonomic units (OTUs) were classified to the species level (63) using a modified form of the Greengenes reference database (64). Principal component analysis was performed upon a weighted and normalized Unifrac (65) distance matrix of OTU abundance in R software. Data from this study has been stored in the NCBI Sequence Read Archive (see url: www.ncbi.nlm.nih.gov/sra).
HSCT patients were on intestinal bacterial composition. In 2009, our center began to prospectively collect weekly stool samples from patients undergoing allo-HSCT. From this specimen bank, we identified paired stool samples collected from patients prior to as well as following initiation of specific antibiotics during the course of allo-HSCT. […]

[5] = tested on: 17 strains from a clostridial mix; assay: Growth of strains from a clostridial mix in BHI media without glucose with added sugars; format: cell-based, Clostridia; settings: BHI media without glucose plus sugar
From the text: Glucose gave the best results and was able to support the growth of 10 of the total 17 strains. Glucose, however would have limited benefit since it likely doesn't give a selective advantage to the beneficial bacteria. Raffinose was able to support 5 strains, while cellobiose appeared to support 4 strains not supported by raffinose. In one embodiment, therefore, a mixture of raffinose and cellobiose can be administered to a subject to provide support for at least a portion of the beneficial bacteria.

[6] = Sugars in drinking water to augment Blautia and mitigate experimental GVHD; format: in vivo, C57BL/6 mice; settings: for GVHD severity / survival of mice with GVHD: 10 g/L in drinking water beginning one week before BMT
Experimental: Left: Intestinal abundance of Blautia was evaluated on day 14 after BMT, results of a single experiment. Right: Mice were followed for development of clinical GVHD (combined results of 2 experiments).
Mice were followed for development of clinical GVHD (combined results of 3 experiments).
C57BL/6 mice were inoculated orally with a murine Blautia isolate known to ferment xylose. Some mice were then administered xylose in the drinking water (10 g/L) beginning 7 days prior to BMT with B10.BR BM and T cells.

Which “Rescue of Blautia growth from Lacto-conditioned-media-mediated suppression” value (“Rescue of Blautia growth” for short) (murine Blautia) does the source give for `O=C1O[C@H]([C@@H](O)CO)C(O)=C1O` [ascorbic acid] here?
The value was “able to support Blautia growth”.

With `CO/N=C(\C(=O)N[C@@H]1C(=O)N2C(C(=O)[O-])=C(C[N+]3(C)CCCC3)CS[C@H]12)c1csc(N)n1` [cefepime] as the compound, how does the “Abundance of Clostridiales in stool” value [1] read?
Its value is “spared Clostridiales”.

For `C[C@H](O)[C@H](O)[C@@H](O)[C@@H](O)C=O` [rhamnose], which “Fermentation of sugar by Blautia” value [2] is on record?
The value was “fermented by Blautia”.

And the “Fermentation of sugar by Lactobacillus” value [3]?
The value was “not by Lactobacillus”.

What does the source list for `C[C@H]1[C@H](NC(=O)/C(=N\OC(C)(C)C(=O)O)c2csc(N)n2)C(=O)N1S(=O)(=O)O` [aztreonam]?
Abundance of Clostridiales in stool [1]: spared Clostridiales; Bacteria past the colonic epithelial barrier [4]: not seen; Change in Clostridiales abundance in stool of patients (Clostridiales): relative preservation of Clostridiales abundances

With `O=C[C@H](O)[C@@H](O)[C@H](O[C@@H]1O[C@H](CO)[C@@H](O)[C@H](O)[C@H]1O)[C@H](O)CO` [cellobiose] as the compound, how does the “Number of strains supported that are not supported by raffinose” value [5] read?
Its value is 4 strains.

With `OC[C@H]1O[C@H](OC[C@H]2O[C@H](O[C@]3(CO)O[C@H](CO)[C@@H](O)[C@@H]3O)[C@H](O)[C@@H](O)[C@@H]2O)[C@H](O)[C@@H](O)[C@H]1O` [raffinose] as the compound, how does the “GVHD severity / survival of mice with GVHD” value [6] read?
Its value is “reduces GVHD severity”.

What about the “Number of strains whose growth is supported” value ([5]; of the total 17 strains) of the same compound?
The value was 5 strains.

For `O=C([O-])CS.[Na+]` [sodium thioglycolate], which “Rescue of Blautia growth” value (murine Blautia) is on record?
Its value is “able to support Blautia growth”.

Which results are given for `O=C[C@H](O)[C@@H](O)[C@H](O)CO` [xylose]?
GVHD severity / survival of mice with GVHD [6]: improved survival; also recorded: reduced GVHD severity; Intestinal abundance of Blautia ([6]; 10 g/L in drinking water from 7 days before BMT, day 14 after BMT, 16S deep sequencing): expansion of Blautia; also recorded: increased abundance; Fermentation of sugar by Blautia [2]: fermented by Blautia; Fermentation of sugar by Lactobacillus [3]: not by Lactobacillus

For `N[C@@H](CS)C(=O)O` [L-cysteine], which “Rescue of Blautia growth” value (murine Blautia) is on record?
The value was “able to support Blautia growth”.
